According to patent publication US11440910B2, “Pesticidally active heterocyclic derivatives with sulfur containing substituents” (SYNGENTA PARTICIPATIONS AG, priority 2017, dated 2022):

Columns and labels:
[1] = tested on: Bemisia tabaci (Cotton white fly); assay: Example B7: Bemisia tabaci, cotton leaf discs sprayed; format: in vivo; details: foliar, 144 h, application rate 200 ppm, adult white flies, 6 days after incubation
Protocol: Example B7: Bemisia Tabaci (Cotton White Fly)
Cotton leaf discs were placed on agar in 24-well microtiter plates and sprayed with aqueous test solutions prepared from 10′000 ppm DMSO stock solutions. After drying the leaf discs were infested with adult white flies. The samples were checked for mortality 6 days after incubation.

[2] = tested on: Diabrotica balteata (Corn root worm); assay: Example B4: Diabrotica balteata, maize sprouts sprayed; format: in vivo; details: 96 h, application rate 200 ppm, L2 larvae, 4 days after infestation, read-out: effect in at least one of the two categories (mortality or growth inhibition)
Protocol: Example B4: Diabrotica Balteata (Corn Root Worm)
Maize sprouts placed onto an agar layer in 24-well microtiter plates were treated with aqueous test solutions prepared from 10′000 ppm DMSO stock solutions by spraying. After drying, the plates were infested with L2 larvae (6 to 10 per well). The samples were assessed for mortality and growth inhibition in comparison to untreated samples 4 days after infestation.

[3] = tested on: Myzus persicae (Green peach aphid); assay: Example B6: Myzus persicae, roots of pea seedlings in test solution; format: in vivo; details: 144 h, test rate 24 ppm, mixed ages, 6 days after placing seedlings into test solutions
Protocol: Example B6: Myzus Persicae (Green Peach Aphid)
Roots of pea seedlings infested with an aphid population of mixed ages were placed directly into aqueous test solutions prepared from 10′000 DMSO stock solutions. The samples were assessed for mortality 6 days after placing seedlings into test solutions.

Euschistus heros = assay: Example B13: comparison against Euschistus heros, soybean plants sprayed; format: in vivo; details: 120 h, Concentration 3 ppm, N2 nymphs on 2 week old soybean plants, 5 days after treatment
Protocol: Activity of compound P17 according to the present invention and of compound P15 from WO2016/026848 against Euschistus heros is summarized in Table B13.
2 week old soybean plants were sprayed with diluted aqueous test solutions. Afterwards plants were infested with 10 stink bug nymphs (N2). Soybean seeds were added as additional food source to the test system. 5 days after treatment the samples were assessed for mortality.

[4] = tested on: Plutella xylostella (Diamond back moth); assay: Example B3: Plutella xylostella, artificial diet; format: in vivo; details: 120 h, application rate 200 ppm, L2 larvae, 5 days after infestation, read-out: effect in at least one of the two categories (mortality or growth inhibition)
Protocol: Example B3: Plutella Xylostella (Diamond Back Moth)
24-well microtiter plates with artificial diet were treated with aqueous test solutions prepared from 10′000 ppm DMSO stock solutions by pipetting. After drying, the plates were infested with L2 larvae (10 to 15 per well). The samples were assessed for mortality and growth inhibition in comparison to untreated samples 5 days after infestation.

[5] = tested on: Myzus persicae (Green peach aphid); assay: Example B5: Myzus persicae, sunflower leaf discs sprayed; format: in vivo; details: foliar, 144 h, application rate 200 ppm, mixed ages, 6 days after infestation
Protocol: Example B5: Myzus Persicae (Green Peach Aphid)
Sunflower leaf discs were placed onto agar in a 24-well microtiter plate and sprayed with aqueous test solutions prepared from 10′000 ppm DMSO stock solutions. After drying, the leaf discs were infested with an aphid population of mixed ages. The samples were assessed for mortality 6 days after infestation.

[6] = tested on: Euschistus heros (Neotropical brown stink bug); assay: Example B8: Euschistus heros, soybean leaves sprayed; format: in vivo; details: 120 h, application rate 200 ppm, N2 nymphs, 5 days after infestation, read-out: effect in at least one of the two categories (mortality or growth inhibition)
Protocol: Example B8: Euschistus Heros (Neotropical Brown Stink Bug)
Soybean leaves on agar in 24-well microtiter plates were sprayed with aqueous test solutions prepared from 10′000 ppm DMSO stock solutions. After drying the leaves were infested with N2 nymphs. The samples were assessed for mortality and growth inhibition in comparison to untreated samples 5 days after infestation.

[7] = tested on: Spodoptera littoralis (Egyptian cotton leaf worm); assay: Example B1: Spodoptera littoralis, cotton leaf discs sprayed; format: in vivo; details: foliar, 72 h, application rate 200 ppm, L1 larvae, 3 days after infestation, read-out: control (at least one of mortality, anti-feedant effect, growth inhibition)
Protocol: Example B1: Spodoptera Littoralis (Egyptian Cotton Leaf Worm)
Cotton leaf discs were placed onto agar in 24-well microtiter plates and sprayed with aqueous test solutions prepared from 10′000 ppm DMSO stock solutions. After drying the leaf discs were infested with five L1 larvae. The samples were assessed for mortality, anti-feeding effect, and growth inhibition in comparison to untreated samples 3 days after infestation. Control of Spodoptera littoralis by a test sample is given when at least one of the categories mortality, anti-feedant effect, and growth inhibition is higher than the untreated sample.

[8] = tested on: Spodoptera littoralis (Egyptian cotton leaf worm); assay: Example B2: Spodoptera littoralis, systemic test via lettuce roots in agar; format: in vivo; details: 144 h, test rate 12.5 ppm, 6 days after infestation, read-out: effect in at least one of the three categories (mortality, anti-feeding, or growth inhibition)
Description: Example B2: Spodoptera Littoralis (Egyptian Cotton Leaf Worm)
Test compounds were applied by pipette from 10′000 ppm DMSO stock solutions into 24-well plates and mixed with agar. Lettuce seeds were placed onto the agar and the multi well plate was closed by another plate which contained also agar. After 7 days the compound was absorbed by the roots and the lettuce grew into the lid plate. The lettuce leaves were then cut off into the lid plate. Spodoptera eggs were pipetted through a plastic stencil onto a humid gel blotting paper and the lid plate was closed with it. The samples were assessed for mortality, anti-feedant effect and growth inhibition in comparison to untreated samples 6 days after infestation.

Structure (SMILES): CCS(=O)(=O)c1cc(C(C)(C)C#N)ccc1-c1nc2cc(C(F)(F)F)ncc2n1C [Compound P17, 2-[3-ethylsulfonyl-4-[3-methyl-6-(trifluoromethyl)imidazo[4,5-c]pyridin-2-yl]phenyl]-2-methyl-propanenitrile]
- mortality at 200 ppm [1]: ≥ 80%
- percent effect (mortality or growth inhibition) at 200 ppm [2]: ≥ 80%
- mortality at 24 ppm [3]: ≥ 80%
- mortality at 3 ppm (Euschistus heros): 95%
- percent effect (mortality or growth inhibition) at 200 ppm [4]: ≥ 80%
- mortality at 200 ppm [5]: ≥ 80%
- percent effect (mortality or growth inhibition) at 200 ppm [6]: ≥ 80%

Structure (SMILES): CCS(=O)(=O)c1cc(C(C)(C)C#N)cnc1-c1nc2cc(C(F)(F)F)ncc2n1C [Compound P5, 2-[5-ethylsulfonyl-6-[3-methyl-6-(trifluoromethyl)imidazo[4,5-c]pyridin-2-yl]-3-pyridyl]-2-methyl-propanenitrile]
- mortality at 200 ppm [1]: ≥ 80%
- percent effect (mortality or growth inhibition) at 200 ppm [2]: ≥ 80%
- percent control (mortality, anti-feedant effect or growth inhibition) at 200 ppm [7]: ≥ 80%
- mortality at 24 ppm [3]: ≥ 80%
- percent effect (mortality or growth inhibition) at 200 ppm [4]: ≥ 80%
- mortality at 200 ppm [5]: ≥ 80%
- percent effect (mortality or growth inhibition) at 200 ppm [6]: ≥ 80%

Structure (SMILES): CCS(=O)(=O)c1cc(C(C)(C)C#N)ccc1-c1nc2cc(C(F)(F)F)nnc2n1C [Compound P12, 2-[3-ethylsulfonyl-4-[7-methyl-3-(trifluoromethyl)imidazo[4,5-c]pyridazin-6-yl]phenyl]-2-methyl-propanenitrile]
- mortality at 200 ppm [1]: ≥ 80%
- percent effect (mortality or growth inhibition) at 200 ppm [2]: ≥ 80%
- mortality at 24 ppm [3]: ≥ 80%
- percent effect (mortality or growth inhibition) at 200 ppm [4]: ≥ 80%
- mortality at 200 ppm [5]: ≥ 80%
- percent effect (mortality or growth inhibition) at 200 ppm [6]: ≥ 80%

Structure (SMILES): CCS(=O)(=O)c1cc(C(C)(C#N)C#N)cnc1-c1nc2cc(C(F)(F)F)ncc2n1C [Compound P1, 2-[5-ethylsulfonyl-6-[3-methyl-6-(trifluoromethyl)imidazo[4,5-c]pyridin-2-yl]-3-pyridyl]-2-methyl-propanedinitrile]
- melting point: 222 to 223 °C

Structure (SMILES): CCS(=O)(=O)c1cc(C(C)(C)C#N)cnc1-c1nc2cc(C(F)(F)C(F)(F)F)ncc2n1C [Compound P20, 2-[5-ethylsulfonyl-6-[3-methyl-6-(1,1,2,2,2-pentafluoroethyl)imidazo[4,5-c]pyridin-2-yl]-3-pyridyl]-2-methyl-propanenitrile]
- melting point: 212 to 213 °C

Structure (SMILES): CCS(=O)(=O)c1cc(C(C)(C)C#N)cnc1-c1nc2cc(C(F)(F)F)nnc2n1C [Compound P2, 2-[5-ethylsulfonyl-6-[7-methyl-3-(trifluoromethyl)imidazo[4,5-c]pyridazin-6-yl]-3-pyridyl]-2-methyl-propanenitrile]
- mortality at 200 ppm [1]: ≥ 80%
- percent effect (mortality or growth inhibition) at 200 ppm [2]: ≥ 80%
- percent control (mortality, anti-feedant effect or growth inhibition) at 200 ppm [7]: ≥ 80%
- mortality at 24 ppm [3]: ≥ 80%
- percent effect (mortality, anti-feeding or growth inhibition) at 12.5 ppm [8]: ≥ 80%
- percent effect (mortality or growth inhibition) at 200 ppm [4]: ≥ 80%
- mortality at 200 ppm [5]: ≥ 80%
- percent effect (mortality or growth inhibition) at 200 ppm [6]: ≥ 80%

Structure (SMILES): CCS(=O)(=O)c1cc(C(C)(F)C#N)cnc1-c1nc2cc(C(F)(F)F)ncc2n1C (stereo not shown) [Compound P18, 2-[5-ethylsulfonyl-6-[3-methyl-6-(trifluoromethyl)imidazo[4,5-c]pyridin-2-yl]-3-pyridyl]-2-fluoro-propanenitrile]
- melting point: 202 to 204 °C
